The structures appear in SMILES notation.

Data set [1] is described as follows: Partition coefficient (logP). The class given is physicochemical. The note with it: octanol/water.
Data set [2] deals with Mu-type opioid receptor (Rattus norvegicus) (UniProt P33535). The note with it: Brain; Membrane.
Data set [3] shares this target. As to conditions: Brain; Membrane. This is another data set of the same source.

Sequence of Mu-type opioid receptor (Rattus norvegicus) (P33535 whole entry): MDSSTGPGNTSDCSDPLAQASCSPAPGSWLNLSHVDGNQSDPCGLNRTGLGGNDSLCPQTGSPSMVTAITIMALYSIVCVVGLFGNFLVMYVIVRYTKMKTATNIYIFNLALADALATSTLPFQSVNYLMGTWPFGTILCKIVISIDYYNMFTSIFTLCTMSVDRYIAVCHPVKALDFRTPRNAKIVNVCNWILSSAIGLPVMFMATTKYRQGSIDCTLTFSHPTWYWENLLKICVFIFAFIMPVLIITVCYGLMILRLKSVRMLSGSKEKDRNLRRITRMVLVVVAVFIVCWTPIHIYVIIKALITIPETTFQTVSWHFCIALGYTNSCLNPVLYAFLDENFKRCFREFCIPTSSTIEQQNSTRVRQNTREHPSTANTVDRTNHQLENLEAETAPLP

The logP is a log measure of how a compound divides between an organic and an aqueous phase. With `CN1CCC23c4c5ccc(O)c4OC2C(=O)CCC3(O)C1C5` (configuration not stated), the logP in data set [1] (read-out: logP) is -0.42.

In data set [2], `C=CCN1CCC23CCCCC2C1Cc1ccc(O)cc13` (configuration not stated) gave a KT of 21.6. The same compound came in with a Kp in data set [3] of 20.8. Further, in data set [1] (read-out: logP), the logP was 2.14.

With `CN1CCC23c4c5cccc4OC2CCCC3C1C5` (configuration not stated), the lipophilicity (logP) in data set [1] (read-out: logP) was determined as 1.35.

As for `CN1CCC23c4c5ccc(O)c4OC2C(O)CCC3C1C5` (configuration not stated), the logP in data set [1] (read-out: logP) is -0.51.

As to `CN1CCC23c4c5cccc4OC2C(=O)CCC3C1C5` (configuration not stated), the logP in data set [1] (read-out: logP) was found to be 0.4.

For `CN1CCC23c4c5cccc4OC2C(=O)CCC3(O)C1C5` (configuration not stated), the logP in data set [1] (read-out: logP) is -0.23.

Regarding `C=CCN1CCC23c4c5ccc(O)c4OC2C(O)C=CC3C1C5` (configuration not stated), in data set [1] (read-out: logP), the log partition coefficient (logP) turned out to be 1.22.

Consider `C=CCN1CCC23c4c5cccc4OC2C(O)CCC3C1C5` (configuration not stated), for which the logP in data set [1] (read-out: logP) is 0.87.

In the case of `CN1CCC23c4c5cccc4OC2C(O)C=CC3C1C5` (configuration not stated), in data set [1] (read-out: logP), the logP came to 0.3.

For the compound `CN1CC[C@]23c4c5ccc(O)c4O[C@H]2[C@@H](O)C=C[C@H]3[C@H]1C5`, the KT in data set [2] was 18.8. For the same compound, the Kp in data set [3] worked out at 12.6.

In turn, `C=CCN1CCC2(C)c3cc(O)ccc3CC1C2C` (stereo in doubt; form 1) returned a log partition coefficient (logP) in data set [1] of 1.58.

As for `CC1C2Cc3ccc(O)cc3C1(C)CCN2Cc1ccoc1` (stereo in doubt; form 1), the logP in data set [1] (read-out: logP) was 2.25.

Consider `CC1C2Cc3ccc(O)cc3C1(C)CCN2Cc1ccco1` (stereo in doubt; form 1), for which the logP in data set [1] is 2.49.

As to `C=CCN1CCC2(C)c3cc(O)ccc3CC1C2C` (stereo in doubt; form 2), in data set [1] (read-out: logP), the logP was determined as 1.73.

In data set [1], `CC1C2Cc3ccc(O)cc3C1(C)CCN2Cc1ccoc1` (stereo in doubt; form 2) displayed a logP of 2.

With `CC1C2Cc3ccc(O)cc3C1(C)CCN2Cc1ccco1` (stereo in doubt; form 2), the logP in data set [1] (read-out: logP) is 2.68.

On to `COc1ccc2c3c1O[C@H]1[C@@H](O)C=C[C@H]4[C@@H](C2)N(C)CC[C@@]341` [CODEINE], for which the KT in data set [2] was 13.3. Further, in data set [3], the Kp is 11.4. Moreover, the logP in data set [1] (read-out: logP) was found to be 0.25.

`C[C@H]1[C@H]2Cc3ccc(O)cc3[C@]1(C)CCN2CC1CC1` [CYCLAZOCINE] displayed a logP in data set [1] of 0.97.

With `CN1CC[C@]23CCCC[C@H]2[C@H]1Cc1ccc(O)cc13` [LEVORPHANOL], in data set [2], the KT came out at 20.8. The same compound registered a Kp in data set [3] of 15.6. Further, in data set [1] (read-out: logP), the logP was found to be 1.03.

For `C[C@H]1[C@@H]2Cc3ccc(O)cc3[C@]1(C)CCN2C` [METAZOCINE], the logP in data set [1] (read-out: logP) turned out to be 0.47.

Source of the values: ChEMBL document CHEMBL1124051 (J Med Chem, 1988).
